Measured values published in JPH1029937A, “メフェナム酸水溶液製剤” (KOBAYASHI SEIYAKU KOGYO KK, priority 1996, dated 1997).

Assays:
[1] = Solubility of mefenamic acid in water and various aqueous solutions; type: physicochemical; conditions: for solubility: aqueous solution containing polyvinylpyrrolidone and basic substance
[2] = in words, background statement; cited from earlier work

solubility [1]: 高い溶解性を示し
solubility ([1]; with nonionic surfactant of HLB 14-15 added): 溶解性が飛躍的に向上する
solubility and stability ([1]; aqueous solution of polyvinylpyrrolidone and surfactant mixture, approximately pH 7.0-8.0): 良好な溶解性と安定性を示す
Compound: Cc1cccc(Nc2ccccc2C(=O)O)c1C [メフェナム酸, N−2,3−キシリルアントラニル酸]
solubility in water [2]: 水に極めて溶けにくく
